Results from patent US8148391B2 (Cephalon, Inc., priority 2006, dated 2012).
Where two headings read alike, the source gives them in different places.

How the values were obtained:
[1] = biological target: T1, c-Met (cytoplasmic domain) (Homo sapiens, UniProt P08581); assay: c-Met Kinase Assay (same methods as for ALK, with modifications); assay type: biochemical
T1 construct: 10 ng/mL c-Met (cytoplasmic domain, Invitrogen Corporation #PV3143); purchased Invitrogen Corporation PV3143
In short: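 IC50 values were fitted by variable-slope sigmoidal regression of percent inhibition against log compound concentration. Phosphorylation was read with Eu-N1 PT66 antibody after a 15 min, 37 °C reaction. The reaction was initiated with 10 ng/mL c-Met cytoplasmic domain on wells coated with 10 μg/mL PLC-γ in TBS.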

[2] = biological target: T2, baculovirus-expressed ALK (Homo sapiens, UniProt Q9UM73); assay: ALK Kinase Assay (ELISA-type, time-resolved fluorescence); assay type: biochemical
T2 construct: host or cells: baculovirus expression system
T2 sequence (Q9UM73 19-1620): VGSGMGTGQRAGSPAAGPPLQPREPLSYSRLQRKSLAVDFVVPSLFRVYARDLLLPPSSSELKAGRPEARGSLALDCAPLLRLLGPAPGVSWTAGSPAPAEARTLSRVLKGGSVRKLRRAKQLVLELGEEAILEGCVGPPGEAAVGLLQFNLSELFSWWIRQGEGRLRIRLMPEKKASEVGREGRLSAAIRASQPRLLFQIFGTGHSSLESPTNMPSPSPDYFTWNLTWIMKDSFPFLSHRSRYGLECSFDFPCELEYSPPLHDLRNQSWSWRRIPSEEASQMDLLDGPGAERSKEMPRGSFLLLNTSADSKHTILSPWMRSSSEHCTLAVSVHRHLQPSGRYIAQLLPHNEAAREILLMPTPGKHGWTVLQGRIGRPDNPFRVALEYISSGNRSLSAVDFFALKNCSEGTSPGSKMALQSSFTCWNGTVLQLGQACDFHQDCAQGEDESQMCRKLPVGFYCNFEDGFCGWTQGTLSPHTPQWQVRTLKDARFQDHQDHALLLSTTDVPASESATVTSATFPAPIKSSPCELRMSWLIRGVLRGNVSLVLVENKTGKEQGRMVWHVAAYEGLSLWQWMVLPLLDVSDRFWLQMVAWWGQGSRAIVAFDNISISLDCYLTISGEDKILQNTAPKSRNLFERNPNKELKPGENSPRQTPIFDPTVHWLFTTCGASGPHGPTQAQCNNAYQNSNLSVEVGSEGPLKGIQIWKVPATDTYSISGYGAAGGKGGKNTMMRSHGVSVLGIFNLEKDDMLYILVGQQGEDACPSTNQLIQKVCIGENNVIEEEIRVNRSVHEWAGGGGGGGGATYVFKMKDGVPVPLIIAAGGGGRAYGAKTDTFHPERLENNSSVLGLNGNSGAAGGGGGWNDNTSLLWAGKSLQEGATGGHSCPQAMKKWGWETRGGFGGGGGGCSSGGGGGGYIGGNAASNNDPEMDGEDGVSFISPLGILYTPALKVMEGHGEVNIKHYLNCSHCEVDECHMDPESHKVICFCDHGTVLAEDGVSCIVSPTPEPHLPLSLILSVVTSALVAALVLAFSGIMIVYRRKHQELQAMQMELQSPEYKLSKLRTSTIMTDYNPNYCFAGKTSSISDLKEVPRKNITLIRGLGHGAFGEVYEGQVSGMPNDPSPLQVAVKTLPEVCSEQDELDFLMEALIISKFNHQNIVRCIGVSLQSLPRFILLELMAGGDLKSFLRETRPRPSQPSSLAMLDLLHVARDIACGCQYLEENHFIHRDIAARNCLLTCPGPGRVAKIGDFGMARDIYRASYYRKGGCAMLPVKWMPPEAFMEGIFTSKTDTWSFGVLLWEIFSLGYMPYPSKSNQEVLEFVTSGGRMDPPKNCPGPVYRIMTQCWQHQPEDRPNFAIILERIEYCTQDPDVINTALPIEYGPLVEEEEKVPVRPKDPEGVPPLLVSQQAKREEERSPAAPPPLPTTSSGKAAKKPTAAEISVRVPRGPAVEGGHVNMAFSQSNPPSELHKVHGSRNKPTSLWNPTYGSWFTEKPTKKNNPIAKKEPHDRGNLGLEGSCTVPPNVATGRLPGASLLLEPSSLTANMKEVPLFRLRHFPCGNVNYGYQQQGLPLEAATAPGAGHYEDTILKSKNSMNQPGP
In short: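 Wells were coated with phospholipase C-γ at 10 μg/mL in Tris-buffered saline. Adding 30 ng/ml enzyme started the reaction, which ran at 37° C for 15 minutes before Eu-N1 PT66 antibody detection. Percent inhibition versus log10 concentration gave IC50 by variable-slope fit.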

[3] = 1 μM ATP (Km level), 10 ng/mL c-Met, read-out: cMet Activity (c-Met kinase inhibition, IC50 class)
[4] = 1 μM ATP (Km level), 30 ng/ml ALK, 37° C., 15 minutes, read-out: ALK Activity (ALK kinase inhibition, IC50 class)
[5] = 1 μM ATP (Km level), read-out: cMet Activity (c-Met Kinase Inhibition, IC50)
[6] = 1 μM ATP (Km level), read-out: ALK Activity (ALK Kinase Inhibition, IC50)
[7] = c-Met kinase inhibition, 1 μM ATP, read-out: cMet Activity
[8] = ALK kinase inhibition, 1 μM ATP, read-out: ALK Activity
[9] = c-Met kinase inhibition, 1 μM ATP (Km level), read-out: cMet Activity
[10] = ALK kinase inhibition, 1 μM ATP (Km level), read-out: ALK Activity

T1 sequence (P08581 956-1390 limits assumed): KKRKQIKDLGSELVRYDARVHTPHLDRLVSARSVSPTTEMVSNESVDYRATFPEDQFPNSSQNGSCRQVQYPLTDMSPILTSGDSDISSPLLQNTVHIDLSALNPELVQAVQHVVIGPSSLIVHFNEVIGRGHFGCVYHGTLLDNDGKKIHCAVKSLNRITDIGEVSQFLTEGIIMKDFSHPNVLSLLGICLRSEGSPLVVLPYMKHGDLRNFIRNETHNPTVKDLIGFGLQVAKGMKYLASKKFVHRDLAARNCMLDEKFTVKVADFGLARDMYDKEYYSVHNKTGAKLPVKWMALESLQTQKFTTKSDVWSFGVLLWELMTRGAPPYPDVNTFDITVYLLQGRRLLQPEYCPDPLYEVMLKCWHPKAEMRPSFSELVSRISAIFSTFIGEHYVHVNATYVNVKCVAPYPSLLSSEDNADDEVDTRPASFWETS

Compound | IC50 [1, 5] | IC50 [2, 6] | IC50 [1, 7] | IC50 [2, 8] | further results
CCNC(=O)c1cccc(F)c1Nc1nc(Nc2ccc3c(c2)CCN(CC(=O)NC)CC3)ncc1Cl [Example 1372, 2-[5-Chloro-2-(3-methylcarbamoylmethyl-2,3,4,5-tetrahydro-1H-benzo[d]azepin-7-ylamino)-pyrimidin-4-ylamino]-N-ethyl-3-fluoro-benzamide] |  |  |  |  | IC50 [1, 3]: < 100 nM; IC50 [2, 4]: < 100 nM
CNC(=O)c1ccc2c(c1Nc1nc(Nc3ccc4c(c3)CCN(CCOC)CC4)ncc1Cl)OCO2 [Example 1480, 4-{5-Chloro-2-[3-(2-methoxy-ethyl)-2,3,4,5-tetrahydro-1H-benzo[d]azepin-7-ylamino]-pyrimidin-4-ylamino}-benzo[1,3]dioxole-5-carboxylic acid methylamide] |  |  | 1000 to 10000 nM | 100 to 1000 nM | 
CC1(C)CCCN(C(=O)CN2CCCC2)c2cc(Nc3ncc(Cl)c(N[C@H]4[C@@H](C(N)=O)[C@@H]5C=C[C@H]4C5)n3)ccc21 [Example 1607, (1S,2S,3R,4R)-3-{5-Chloro-2-[5,5-dimethyl-1-(2-pyrrolidin-1-yl-acetyl)-2,3,4,5-tetrahydro-1H-benzo[b]azepin-8-ylamino]-pyrimidin-4-ylamino}-bicyclo[2.2.1]hept-5-ene-2-carboxylic acid amide] |  |  | 100 to 1000 nM | < 100 nM | 
CCN1C(=O)OCCc2ccc(Nc3ncc(Cl)c(Nc4c(F)cccc4C(=O)NC)n3)cc21 [Example 1882, 2-[5-Chloro-2-(5-ethyl-6-oxo-5,6,8,9-tetrahydro-7-oxa-5-aza-benzocyclohepten-3-ylamino)-pyrimidin-4-ylamino]-3-fluoro-N-methyl-benzamide] |  |  |  |  | IC50 [1, 9]: < 100 nM; IC50 [2, 10]: < 100 nM
CN1C(=O)OCCc2cc(Nc3ncc(Cl)c(Nc4c(F)cccc4OCCN)n3)ccc21 [Example 1781, 2-{4-[2-(2-Amino-ethoxy)-6-fluoro-phenylamino]-5-chloro-pyrimidin-2-ylamino}-5-methyl-8,9-dihydro-5H-7-oxa-5-aza-benzocyclohepten-6-one] |  |  | 1000 to 10000 nM | 1000 to 10000 nM | 
CNC(=O)c1cc(F)ccc1Nc1nc(Nc2ccc3c(c2)-n2ccnc2CCC3)ncc1Cl [Example 1841, 2-[5-Chloro-2-(5,6-dihydro-4H-3,10b-diaza-benzo[e]azulen-9-ylamino)-pyrimidin-4-ylamino]-5-fluoro-N-methyl-benzamide] |  |  | 100 to 1000 nM | 1000 to 10000 nM | 
COc1cc(N2CCOCC2)ccc1Nc1nc(Nc2ccc3c(c2)N(C(C)C)C(=O)CCC3(C)C)ncc1Cl [Example 1591, 8-[5-Chloro-4-(2-methoxy-4-morpholin-4-yl-phenylamino)-pyrimidin-2-ylamino]-1-isopropyl-5,5-dimethyl-1,3,4,5-tetrahydro-benzo[b]azepin-2-one] |  |  | > 10000 nM | < 100 nM | 
CNC(=O)c1cccc(F)c1Nc1nc(Nc2ccc3c(c2)CCN(C(=O)C2COCCO2)CC3)ncc1Cl (stereo not drawn) [Example 639, 2-{5-Chloro-2-[3-([1,4]dioxane-2-carbonyl)-2,3,4,5-tetrahydro-1H-benzo[d]azepin-7-ylamino]-pyrimidin-4-ylamino}-3-fluoro-N-methyl-benzamide] | < 100 nM | < 100 nM |  |  | 
COc1cc(N2CCOCC2)ccc1Nc1nc(Nc2ccc3c(c2OC)CCC(NCCO)CC3)ncc1Cl (stereo not drawn) [Example 705, 2-{2-[5-Chloro-4-(2-methoxy-4-morpholin-4-yl-phenylamino)-pyrimidin-2-ylamino]-1-methoxy-6,7,8,9-tetrahydro-5H-benzocyclohepten-7-ylamino}-ethanol] | > 10000 nM | < 100 nM |  |  | 
CNS(=O)(=O)c1ccccc1Nc1nc(Nc2ccc3c(c2)CNC(=O)CCN3C(=O)C(F)(F)F)ncc1Cl [Example 1303, 2-{5-Chloro-2-[4-oxo-1-(2,2,2-trifluoro-acetyl)-1,2,3,4,5,6-hexahydro-benzo[b][1,5]diazocin-8-ylamino]-pyrimidin-4-ylamino}-N-methyl-benzenesulfonamide] |  |  |  |  | IC50 [1, 3]: < 100 nM; IC50 [2, 4]: < 100 nM
CCNC(=O)c1cccc(F)c1Nc1nc(Nc2ccc3c(c2)C(C)(C)CCC(=O)N3C)ncc1Cl [Example 1366, 2-[5-Chloro-2-(1,5,5-trimethyl-2-oxo-2,3,4,5-tetrahydro-1H-benzo[b]azepin-7-ylamino)-pyrimidin-4-ylamino]-N-ethyl-3-fluoro-benzamide] |  |  |  |  | IC50 [1, 3]: < 100 nM; IC50 [2, 4]: < 100 nM
CN1C(=O)OCCc2cc(Nc3ncc(Cl)c(Nc4cccc5[nH]ncc45)n3)ccc21 [Example 1769, 2-[5-Chloro-4-(1H-indazol-4-ylamino)-pyrimidin-2-ylamino]-5-methyl-8,9-dihydro-5H-7-oxa-5-aza-benzocyclohepten-6-one] |  |  | 100 to 1000 nM | 100 to 1000 nM | 
CNS(=O)(=O)c1ccccc1Nc1nc(Nc2ccc3c(c2)CCCC(=O)N3CC(=O)OC)ncc1Cl [Example 8, {7-[5-Chloro-4-(2-methylsulfamoyl-phenylamino)-pyrimidin-2-ylamino]-2-oxo-2,3,4,5-tetrahydro-benzo[b]azepin-1-yl}-acetic acid methyl ester] |  |  |  |  | IC50 [1, 9]: < 100 nM; IC50 [2, 10]: < 100 nM
CCN1CC2OC(C1)c1cc(Nc3ncc(Cl)c(Nc4ccccc4S(=O)(=O)NC)n3)ccc12 (stereo not drawn) [Example 66, 2-[5-Chloro-2-(10-ethyl-12-oxa-10-aza-tricyclo[6.3.1.0*2,7*]dodeca-2(7),3,5-trien-4-ylamino)-pyrimidin-4-ylamino]-N-methyl-benzenesulfonamide] |  |  |  |  | IC50 [1, 9]: 1000 to 10000 nM; IC50 [2, 10]: < 100 nM

More lines, main results first:

IC50 [1, 5] | IC50 [2, 6] | IC50 [1, 7] | IC50 [2, 8] | Compound | further results
> 10000 nM | < 100 nM |  |  | 5-Chloro-N*4*-(2-ethyl-4-morpholin-4-yl-phenyl)-N*2*-[7-(2,2,2-trifluoro-ethylamino)-6,7,8,9-tetrahydro-5H-benzocyclohepten-2-yl]-pyrimidine-2,4-diamine [Example 652] | 
 |  | > 10000 nM | 100 to 1000 nM | CCN1C(=O)CCCc2c1ccc(Nc1ncc(Cl)c(N[C@@H]3[C@@H]4C[C@@H]([C@@H](O)[C@H]4O)[C@@H]3C(N)=O)n1)c2OC [Example 1699, (1R,2S,3R,4S,5S,6R)-3-[5-Chloro-2-(1-ethyl-6-methoxy-2-oxo-2,3,4,5-tetrahydro-1H-benzo[b]azepin-7-ylamino)-pyrimidin-4-ylamino]-5,6-dihydroxy-bicyclo[2.2.1]heptane-2-carboxylic acid amide] | 
> 10000 nM | 100 to 1000 nM |  |  | CN1CCN(C[C@@H](O)C(F)(F)F)Cc2cc(OCC(F)(F)F)c(Nc3ncc(Cl)c(N[C@@H]4CCCC[C@H]4NS(C)(=O)=O)n3)cc21 [Example 498, N-((1R,2R)-2-{5-Chloro-2-[1-methyl-7-(2,2,2-trifluoro-ethoxy)-4-((R)-3,3,3-trifluoro-2-hydroxy-propyl)-2,3,4,5-tetrahydro-1H-benzo[e][1,4]diazepin-8-ylamino]-pyrimidin-4-ylamino}-cyclohexyl)-methanesulfonamide] | 
 |  | < 100 nM | < 100 nM | CNC(=O)c1ccccc1Nc1nc(Nc2ccc3c(c2)NC(=O)CN(CCOC)C3)ncc1Cl [Example 1864, 2-{5-Chloro-2-[4-(2-methoxy-ethyl)-2-oxo-2,3,4,5-tetrahydro-1H-benzo[e][1,4]diazepin-8-ylamino]-pyrimidin-4-ylamino}-N-methyl-benzamide] | 
> 10000 nM | < 100 nM |  |  | (1S,2S,3R,4R)-3-[2-(3-Carbamoylmethyl-8-methoxy-2,3,4,5-tetrahydro-1H-benzo[d]azepin-7-ylamino)-5-chloro-pyrimidin-4-ylamino]-bicyclo[2.2.1]hept-5-ene-2-carboxylic acid amide [Example 813] | 
1000 to 10000 nM | < 100 nM |  |  | CCN1CC2CC1CN2c1ccc(Nc2nc(Nc3cc4c(cc3OC)CCN(CC(=O)N(C)C)CC4)ncc2Cl)c(OC)c1 (stereo not drawn) [Example 795, 2-(7-{5-Chloro-4-[4-(5-ethyl-2,5-diaza-bicyclo[2.2.1]hept-2-yl)-2-methoxy-phenylamino]-pyrimidin-2-ylamino}-8-methoxy-1,2,4,5-tetrahydro-benzo[d]azepin-3-yl)-N,N-dimethyl-acetamide] | 
> 10000 nM | 100 to 1000 nM |  |  | CCNC(=O)c1cccc(F)c1Nc1nc(Nc2cccc3c2OCCCC3(C)C)ncc1Cl [Example 874, 2-[5-Chloro-2-(5,5-dimethyl-2,3,4,5-tetrahydro-benzo[b]oxepin-9-ylamino)-pyrimidin-4-ylamino]-N-ethyl-3-fluoro-benzamide] | 
> 10000 nM | < 100 nM |  |  | COCCN(C)C1CCc2ccc(Nc3ncc(Cl)c(N[C@H]4[C@@H](C(N)=O)[C@@H]5C=C[C@H]4C5)n3)c(OC)c2CC1 (single isomer, unassigned) [Example 700] | 
< 100 nM | < 100 nM |  |  | CN1C(=O)CCCc2cc(Nc3ncc(Cl)c(Nc4ccccc4C(=O)NCCC#N)n3)ccc21 [Example 871, 2-[5-Chloro-2-(1-methyl-2-oxo-2,3,4,5-tetrahydro-1H-benzo[b]azepin-7-ylamino)-pyrimidin-4-ylamino]-N-(2-cyano-ethyl)-benzamide] | 
 |  | > 10000 nM | < 100 nM | CCN1CC(=O)Nc2cc(Nc3ncc(Cl)c(Nc4ccccc4S(=O)(=O)C(C)C)n3)c(OC)cc2C1 [Example 1660, 8-{5-Chloro-4-[2-(propane-2-sulfonyl)-phenylamino]-pyrimidin-2-ylamino}-4-ethyl-7-methoxy-1,3,4,5-tetrahydro-benzo[e][1,4]diazepin-2-one] | 
